Values of other authors in PubChem BioAssay AID1259410 (Chemical Carcinogenesis Research Information System (CCRIS), 2018).

Test system: rodent tumor promotion studies, tumor incidence
Assay: CCRIS tumor promotion studies

Q: With O=C1C=CC(=O)c2ccccc21 as the molecule, how does the outcome (Carcinogen: 7,12-DIMETHYLBENZ[A]ANTHRACENE, 57-97-6, Doses [Carcinogen]: 25 NMOL IN 0.2 ML ACETONE ONCE, Doses [Promoter]: 440, 880, 1760 NMOL/MOUSE 1/WK FOR 30 WK BEGINNING 2 WK POST CARCINOGEN DOSE (STUDY DURATION: 32 WK), Doses [Promoter]: 440, 880, 1760 NMOL/MOUSE 1/WK FOR 30 WK BEGINNING 2 WK POST CARCINOGEN DOSE (STUDY DURATION: 32 WK), Route [Carcinogen]: DERMAL, Route [Promoter]: DERMAL, Species: MOUSE, Strain/Sex: SENCAR/FEMALE) read?
A: The outcome was “skin: papilloma”.

Q: Which outcome (Carcinogen: DIETHYLNITROSAMINE, 55-18-5, N-BUTYL-N-(4-HYDROXYBUTYL)NITROSAMINE, 3817-11-6, Carcinogen: DIETHYLNITROSAMINE, 55-18-5, N-BUTYL-N-(4-HYDROXYBUTYL)NITROSAMINE, 3817-11-6, Doses [Carcinogen]: 200 MG/KG DEN ONCE THEN 0.05% BBN IN DRINKING WATER FOR 4 WK, Doses [Promoter]: 0, 0.1% IN DIET FOR 32 WK BEGINNING 3 D POST CARCINOGEN TREATMENT (STUDY DURATION:36 WK), Route [Carcinogen]: INTRAPERITONEAL, ORAL, Route [Promoter]: ORAL, Species: RAT, Strain/Sex: F344/MALE) does the source give for S=C=NCc1ccccc1 here?
A: The outcome was “urinary bladder: papilloma, carcinoma”.

Q: Which outcome (Carcinogen: 2',3-dimethyl-4-aminobiphenyl, 13394-86-0, Doses [Carcinogen]: 50 mg/kg every other wk for 10 injections from 7 wks of age, study duration 64 wks, Doses [Promoter]: 0, 25, 250, 2000 ppm in diet from 3 wks of age for 3 wks, Route [Carcinogen]: Subcutaneous, Route [Promoter]: Oral, Species: Rat, Strain/Sex: F344/Male (15-20/Group)) does the source give for CCCCCCCCCc1ccc(O)cc1 here?
A: Its outcome is “prostate: adenocarcinoma, no effect”.

Q: For CCCCCCCCCCCC(=O)OC[C@@H](O)[C@H]1OC[C@H](O)[C@H]1O, which outcome (Carcinogen: 7,12-DIMETHYLBENZ(A)ANTHRACENE, Doses [Carcinogen]: TOP, Route [Carcinogen]: DERMAL, Route [Promoter]: DERMAL, Species: MOUSE, Strain/Sex: MALE) is on record?
A: The outcome was “integumentary system (skin)”.

Q: Which outcome (Carcinogen: 7,12-DIMETHYLBENZ[A]ANTHRACENE, 57-97-6, Doses [Carcinogen]: 0.5% IN ACETONE/HEAVY MINERAL OIL APPLIED TO BOTH CHEEK POUCHES 3/WK FOR 6 WK, Doses [Promoter]: 0, 10 UG/KG BW 3/WK FOR 6 WK BEGINNING 1 WK POST A SIALOADENECTOMY OR SHAM OPERATION AND 2 WK POST CARCINOGEN TREATMENT, Route [Carcinogen]: MUCOUS MEMBRANE, Route [Promoter]: MUCOUS MEMBRANE, Species: HAMSTER, Strain/Sex: SYRIAN/MALE) does the source give for CC[C@H](C)[C@H](NC(=O)[C@H](Cc1cnc[nH]1)NC(=O)[C@H](CCSC)NC(=O)[C@H](CS)NC(=O)[C@@H](NC(=O)CNC(=O)CNC(=O)[C@H](CC(N)=O)NC(=O)[C@H](CC(C)C)NC(=O)[C@H](CS)NC(=O)[C@H](Cc1ccc(O)cc1)NC(=O)CNC(=O)[C@H](CC(=O)O)NC(=O)[C@H](Cc1ccc(O)cc1)NC(=O)[C@H](CO)NC(=O)[C@H](CO)NC(=O)[C@@H]1CCCN1C(=O)[C@H](CS)NC(=O)CNC(=O)[C@@H]1CCCN1C(=O)[C@H](Cc1ccc(O)cc1)NC(=O)[C@H](CO)NC(=O)[C@@H](N)CC(N)=O)C(C)C)C(=O)N[C@@H](CCC(=O)O)C(=O)N[C@@H](CO)C(=O)N[C@@H](CC(C)C)C(=O)N[C@@H](CC(=O)O)C(=O)N[C@@H](CO)C(=O)N[C@@H](Cc1ccc(O)cc1)C(=O)N[C@H](C(=O)N[C@@H](CS)C(=O)N[C@@H](CC(N)=O)C(=O)N[C@@H](CS)C(=O)N[C@H](C(=O)N[C@H](C(=O)NCC(=O)N[C@@H](Cc1ccc(O)cc1)C(=O)N[C@@H](CO)C(=O)NCC(=O)N[C@@H](CC(=O)O)C(=O)N[C@@H](CCCNC(=N)N)C(=O)N[C@@H](CS)C(=O)N[C@@H](CCC(N)=O)C(=O)N[C@H](C(=O)N[C@@H](CCCNC(=N)N)C(=O)N[C@@H](CC(=O)O)C(=O)N[C@@H](CC(C)C)C(=O)N[C@@H](CCCNC(=N)N)C(=O)N[C@@H](Cc1c[nH]c2ccccc12)C(=O)N[C@@H](Cc1c[nH]c2ccccc12)C(=O)N[C@@H](CCC(=O)O)C(=O)N[C@@H](CC(C)C)C(=O)N[C@@H](CCCNC(=N)N)C(=O)O)[C@@H](C)O)[C@@H](C)CC)C(C)C)[C@@H](C)O here?
A: Its outcome is “cheek pouch: tumor; forestomach: tumor”.

Q: Which outcome (Carcinogen: 2-(ACETYLAMINO)FLUORINE, Doses [Carcinogen]: DIET, Doses [Promoter]: IN DIET, Route [Carcinogen]: ORAL, Route [Promoter]: ORAL, Species: RAT, Strain/Sex: MALE) does the source give for CC1(C)OC(=O)N(c2cc(Cl)cc(Cl)c2)C1=O here?
A: Its outcome is “liver”.

Q: Which outcome (Carcinogen: N-METHYL-N'-NITRO-N-NITROSOGUANIDINE, 70-25-7, Doses [Carcinogen]: 150 MG/KG IN DMSO ONCE, Doses [Promoter]: 0, 1.5% IN DIET FOR 51 WK BEGINNING 1 WK AFTER CARCINOGEN DOSE (STUDY DURATION: 52 WK), Route [Carcinogen]: GAVAGE, Route [Promoter]: ORAL, Species: RAT, Strain/Sex: F344/MALE) does the source give for CC(C)(C)c1ccc(O)c(O)c1 here?
A: The outcome was “forestomach: squamous cell carcinoma”.

Q: With CCCCCCCCC1=C(CCCCCCCC(=O)OC)C1 as the molecule, how does the outcome (Doses [Carcinogen]: DIET, Doses [Promoter]: DIET, Route [Carcinogen]: ORAL, Route [Promoter]: ORAL, Species: FISH, Strain/Sex: RAINBOW TROUT/MALE,FEMALE) read?
A: The outcome was “liver”.

Q: Which outcome (Carcinogen: 1,2-DIMETHYLHYDRAZINE, 540-73-8, Doses [Carcinogen]: 20 MG/KG 1/WK FOR 4 WK, Doses [Promoter]: 0, 0.8% IN DIET FOR 36 WK (STUDY DURATION: 40 WK), Route [Carcinogen]: SUBCUTANEOUS, Route [Promoter]: ORAL, Species: RAT, Strain/Sex: F344/MALE) does the source give for CCOc1ccc2c(c1)C(C)=CC(C)(C)N2 here?
A: Its outcome is “colon: tumor”.

Q: And the outcome (Carcinogen: N-BUTYL-N-(4-HYDROXYBUTYL)NITROSAMINE, 3817-11-6, Doses [Carcinogen]: 0.05% IN DRINKING WATER FOR 4 WK, Doses [Promoter]: 0, 0.8% IN DIET FOR 32 WK (STUDY DURATION: 36 WK), Route [Carcinogen]: ORAL, Route [Promoter]: ORAL, Species: RAT, Strain/Sex: F344/MALE)?
A: Its outcome is “urinary bladder: papilloma, carcinoma”.

Q: What about the outcome (Carcinogen: N-BUTYL-N-(4-HYDROXYBUTYL)NITROSAMINE, 3817-11-6, Doses [Carcinogen]: 0.05% IN DRINKING WATER FOR 4 WK, Doses [Promoter]: 0, 0.8% IN DIET FOR 32 WK BEGINNING POST CARCINOGEN (STUDY DURATION: 36 WK), Route [Carcinogen]: ORAL, Route [Promoter]: ORAL, Species: RAT, Strain/Sex: F344/MALE) of the same molecule?
A: The outcome was “bladder: papilloma”.

Q: What about the outcome (Carcinogen: N-ETHYL-N-(HYDROXYETHYL)NITROSAMINE, 13147-25-6, Doses [Carcinogen]: 0.1% IN DRINKING WATER FOR 2 WK, Doses [Promoter]: 0, 0.8% IN DIET FOR 29 WK (STUDY DURATION: 31 WK), Route [Carcinogen]: ORAL, Route [Promoter]: ORAL, Species: RAT, Strain/Sex: F344/MALE) of the same molecule?
A: Its outcome is “kidney: adenoma”.
